According to patent US7271274B2, “Phenolic antioxidants for the treatment of disorders including arthritis, asthma and coronary artery disease” (AhteroGenics, Inc., priority 2004, dated 2007):

What was measured:
[1] = clinical trials; cited from earlier work
[2] = test system: murine model of allergic pulmonary inflammation; details: cited from earlier work
[3] = test system: IL-1β; experiment: Cytokine screening: LPS-induced secretion of IL-1β from hPBMCs; type: cell-based; details: Homo sapiens, Biological Table 2, LPS 1 μg/ml, mean ± standard deviation
Experimental: (§1) Fresh cryopreserved hPBMCs (1 million cells/ml; Clonetics, Inc.) were pretreated with test compound for 1 hr in lymphocyte growth media-3 (Clonetics, Inc.), followed by stimulation with 1 μg/ml of LPS for another 2 hr in the presence of test compound. Conditioned media was collected and assayed for secreted TNF-α, IL-1β and […] using commercially available human ELISA kits (R&D Systems). Samples were measured in duplicate and data presented as mean ± standard deviation. Each experiment was repeated at least three times with similar results.

[4] = test system: VCAM-1; experiment: In Vitro VCAM-1 Assay - Method 2 (19 h predosing, 4 h TNFα stimulation, surface VCAM-1); type: cell-based; details: Homo sapiens; HAEC or HPAEC, predosed 19 hours, TNFα 1.5 ng/ml 4 hours
Experimental: Cultured primary human aortic (HAEC) or pulmonary artery (HPAEC) endothelial cells are obtained from BioWhittaker (formerly Clonetics), and are used below passage 9. Cells are seeded in 96-well plates such that they will reach ˜95% confluency by the following day (i.e.10,000 cells/well). Compounds are reconstituted in DMSO (100%) and sonicated to ensure maximum dissolution. Dilutions are then made in DMSO to 500× of final concentrations. These stocks are then diluted 500× into cell culture media (EGM-2 Mv, BioWhittaker) and placed overnight in tissue culture incubator (37° C., 5% CO2) to allow maximum dissolution).
Media is removed from the cells and replaced with the prewarmed dosing media. Cells are predosed in this manner for 19 hours at 37° C., 5% CO2. Remove media again from the cells and replace with prepared dosing media containing TNFα (1.5 ng/ml). Allow stimulation to continue for 4 hours at 37° C., 5% CO2. Media is removed and saved for evaluation of secreted factors as needed. Cells are used for quantitating surface VCAM-1, followed by Hoescht nuclear stain for cell number to determine toxicity. Assay for surface VCAM-1 continues as described in Method 1. IC50's of tested compounds are tabulated in Biological Table 1.

[5] = test system: VCAM-1; experiment: In Vitro VCAM-1 Assay - Method 1 (TNF-α stimulated endothelial cells, surface VCAM-1 ELISA); type: cell-based; details: Homo sapiens, Endothelial cell; HAEC or HPAEC, TNF-α 1 ng/ml with compound approximately 16 hours
Experimental: Cell Culture and compound dosing: Cultured primary human aortic (HAEC) or pulmonary (HPAEC) endothelial cells were obtained from Clonetics, Inc., and were used below passage 9. Cells were seeded in 96 well plates such that they would reach 90–95% confluency by the following day. On the following day the cells were stimulated with TNF-α (1 ng/ml) in the presence or absence of compounds dissolved in DMSO such that the final concentration of DMSO is 0.25% or less. To establish a dose curve for each compound, four concentrations in 2- to 5-fold increments were used. Cells were exposed to TNF-α and compounds for approximately 16 hours. The next day the cells were examined under microscope to score for visual signs of toxicity or cell stress.
Following 16 hr exposure to TNF-α and compound the media was discarded and the cells were washed once with Hanks Balanced Salt Solution (HBSS)/Phosphate buffered saline (PBS) (1:1). Primary antibodies against VCAM-1 (0.25 μg/ml in HBSS/PBS+5% FBS) were added and incubated for 30–60 minutes at 37° C. Cells were washed with HBSS/PBS three times, and secondary antibody Horse Radish Peroxidase (HRP)-conjugated goat anti-mouse IgG (1:500 in HBSS/PBS+5% FBS) were added and incubated for 30 minutes at 37° C. Cells were washed with HBSS/PBS four time and TMB substrate were added and incubated at room temperature in the dark until there was adequate development of blue color. The length of time of incubation was typically 5–15 minutes. 2N sulfuric acid was added to stop the color development and the data was collected by reading the absorbance on a BioRad ELISA plate reader at OD 450 nm. The results are expressed as IC50 values (the concentration (micromolar) of compound required to inhibit 50% of the maximal response of the control sample stimulated by TNF-α only). IC50's of tested compounds are tabulated in Biological Table 1.

[6] = test system: TNF-α; experiment: Cytokine screening: LPS-induced secretion of TNF-α from hPBMCs; type: cell-based; details: Homo sapiens
Experimental: as §1

[7] = test system: Balb/C mice; experiment: In vivo asthma model (ovalbumin-sensitized mice, BAL fluid eosinophilia); details: 25 mg/kg, sc, qd; BALF eosinophilia vs vehicle control
Experimental: Balb/C mice (6–8 weeks old) were sensitized to ovalbumin (ova) (8 ug ova absorbed in 3.3 mg Alum inject) on days 0 and 5. On day 12, the mice were aerosol challenged with 0.5% ovalbumin dissolved in sterile saline for 1 hr in the AM, and then again in the PM (at least 4 hr apart). On day 14, the mice were anesthetized with ketamine/xylazine/acepromazine cocktail, exsanguinated, and then euthanized. Following blood collection, bronchoaveolar lavage (BAL) was performed on each animal. Total cell counts were conducted on the lavage fluid, which was subsequently diluted with cell media 1:1. Slides of the lavage fluid were made by spinning the samples with a cytospin centrifuge and then air drying. Cell differentials of the lavage fluid were determined by microscopic evaluation of hematoxylin and eosin-stained slides. Data are expressed as the % inhibition of eosinophilia in the BAL fluid compared to the vehicle control. […] The formulations used contained various mixtures of the following excipients (propylene glycol, polyethylene glycol, Tween 80, Glycofurol).

[8] = test system: Male BALB/c mice; experiment: mBSA-induced delayed-type hypersensitivity (DTH) model of inflammation in mice; type: in vivo; details: vehicle swelling = 100%
Experimental: The methylated bovine serum albumin (mBSA)-induced delayed-type hypersensitivity (DTH) model of mice is generally used for screening compounds with anti-inflammatory effects (Sarnstrand et al., Pharmacol. Exp. Ther. 1999, 288, 1174–84). Compounds of Ex-1 and Ex-2 were tested in this model, dosed subcutaneously at 24 and 2 hrs prior to challenge at doses of 50 and 25 mg/kg with cyclosporin A (CSA) as positive control.
Male BALB/c mice (20–25 g) were sensitized on day 0 by intradermal abdominal injection of 100 μL of a 1:1 emulsion of mBSA (5 mg/ml) and Freund's complete adjuvant. On day 7, the mice were challenged by injecting 25 μL of mBSA (5 mg/ml) into the footpad of the right hindpaw and the left hindpaw was injected with saline. Mice were treated by s.c. injection of test compound 24 hrs and 2 hrs before the challenge. Twenty four hours after challenge mice were sacrificed by CO2 inhalation. The feet were removed by cutting just above the heel with scissors, and the mass of the saline-injected foot was subtracted from the mass of the mBSA injected foot to determine the amount of swelling that occurred in the latter. Inhibition of swelling for test compound group was calculated, taking the swelling of the vehicle-treated group as 100%. The results from the DTH model are summarized for examples 1 and 2 in Biological Table 4 using cyclosporine A (CSA) as a positive control.

[9] = test system: IL-6; experiment: Cytokine screening: LPS-induced secretion of IL-6 from hPBMCs; type: cell-based; details: Homo sapiens, Biological Table 2, LPS 1 μg/ml, mean ± standard deviation
Experimental: as §1

[10] = test system: Female Lewis rats; experiment: In vivo rheumatoid arthritis model (Freund's complete adjuvant, paw swelling); details: paw swelling vs vehicle control
Experimental: Female Lewis rats (200–250 g) were sensitized with Freund's complete adjuvant (100 ug) by subcutaneous injection at the base of the tail. Paw swelling was monitored by measuring the volume of each foot with a plethysmometer on days 5, 8, 12–15. Animals were euthanized on day 15. […] Data is expressed as the % inhibition of paw swelling (AUC of the paw volume vs time curve d5–15) compared with vehicle control. The formulations used contained various mixtures of the following excipients (propylene glycol, polyethylene glycol, Tween 80, Glycofurol).

[11] = test system: LDL receptor-deficient rabbits; details: cited from earlier work
[12] = Biological Table 3, LPS-induced secretion from hPBMN cells, average of at least three determinations
[13] = Biological Table 2, hPBMCs, LPS 1 μg/ml, mean ± standard deviation
[14] = 25 mg/Kg s.c. 24 hrs and 2 hrs before challenge
[15] = 50 mg/Kg s.c. 24 hrs and 2 hrs before challenge

IC50 [3] [µM]	melting point [°C]	IC50 [5] [µM]	IC50 [6, 12] [µM]	IC50 [6, 13] [µM]	IC50 [9] [µM]	Compound	Inhibition of BAL fluid eosinophilia (asthma model) [7] [percentage]	Percent Inhibition (of swelling) [8, 14]	Percent Inhibition (of swelling) [8, 15]	further results
–	–	–	–	–	–	CC(C)(Sc1cc(C(C)(C)C)c(O)c(C(C)(C)C)c1)Sc1cc(C(C)(C)C)c(OC(=O)CCC(=O)O)c(C(C)(C)C)c1 [AGI-1067]	–	–	–	QTc prolongation [1]: did not cause QTc prolongation
–	–	–	–	–	–	COc1cc(CC(=O)N[C@@H](CC(C)C)c2cc(CCC(=O)O)on2)ccc1NC(=O)Nc1ccccc1C [CP-664511]	–	–	–	airway eosinophil infiltration [2]: inhibited airway eosinophil infiltration
7.7 ± 0.6	69 to 71	7	5.1	4 ± 1	1.7 ± 0.9	CC(C)(Sc1cc(C(C)(C)C)c(O)c(C(C)(C)C)c1)Sc1cc(C(C)(C)C)c(OC[C@H](O)[C@@H](O)CO)c(C(C)(C)C)c1 [Ex-1, 4-{2,6-Di-tert-butyl-4-[1-(3,5-di-tert-butyl-4-hydroxyphenylsulfanyl)-1-methylethyl-sulfanyl]phenoxy}butane-1,2(S),3(S)-triol]	87	+40%	+65%	IC50 [4]: 9 µM
8	69 to 71	5	1.6	3.3 ± 0.3	1.2 ± 0.3	CC(C)(Sc1cc(C(C)(C)C)c(O)c(C(C)(C)C)c1)Sc1cc(C(C)(C)C)c(OC[C@@H](O)[C@H](O)CO)c(C(C)(C)C)c1 [Ex-2, 4-{2,6-Di-tert-butyl-4-[1-(3,5-di-tert-butyl-4-hydroxyphenylsulfanyl)-1-methylethylsulfanyl]-phenoxy}butane-1,2(R),3(R)-triol]	65	+25%	+60%	Rheumatoid arthritis model (25 mg/kg, sc, qd, inhibition of paw swelling in percentage) [10]: 75 percentage
–	–	–	–	–	–	CC(C)(Sc1cc(C(C)(C)C)c(O)c(C(C)(C)C)c1)Sc1cc(C(C)(C)C)c(O)c(C(C)(C)C)c1 [probucol, 4,4′-(isopropylidenedithio) bis(2,6-di-tert-butylphenol)]	–	–	–	progression of atherosclerosis [11]: slow the progression of atherosclerosis
